Laboratory results published in ChEMBL document CHEMBL3882724 (2013).

Columns and labels:
[1] = target: T1, Steroid 17-alpha-hydroxylase/17,20 lyase (Homo sapiens, UniProt P05093); assay: Inhibition of CYP17 in human testicular microsomes using 17alpha-hydroxypregnenolone as substrate assessed as decrease in DHEA levels after 90 mins by ELISA; set-up: species or system Testis
T1 sequence (P05093 whole entry): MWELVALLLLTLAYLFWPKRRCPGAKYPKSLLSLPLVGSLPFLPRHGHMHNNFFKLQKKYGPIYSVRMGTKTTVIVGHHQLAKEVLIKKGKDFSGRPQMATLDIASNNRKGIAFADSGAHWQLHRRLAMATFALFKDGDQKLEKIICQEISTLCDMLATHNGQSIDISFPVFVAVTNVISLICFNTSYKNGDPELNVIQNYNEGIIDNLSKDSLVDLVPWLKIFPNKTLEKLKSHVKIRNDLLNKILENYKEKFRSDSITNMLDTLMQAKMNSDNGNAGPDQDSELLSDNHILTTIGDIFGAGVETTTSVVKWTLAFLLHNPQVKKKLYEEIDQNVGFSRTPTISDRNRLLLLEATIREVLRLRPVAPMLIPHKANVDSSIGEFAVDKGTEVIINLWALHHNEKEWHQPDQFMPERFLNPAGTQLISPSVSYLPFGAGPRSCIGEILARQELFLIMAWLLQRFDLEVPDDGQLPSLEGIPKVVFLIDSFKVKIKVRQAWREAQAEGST

[2] = target: T2, CYP21 (steroid 21-hydroxylase) (Homo sapiens, UniProt P08686); assay: Inhibition of human CYP21 transfected in HEK293 cells assessed as decrease in conversion of progesterone to 11-deoxycorticosterone preincubated for 5 hrs followed by progesterone addition measured after 20 hrs by ELISA; assay type: cell-based; set-up: concentration or dose not given beside the values; conditions: HEK293 cells transfected with human CYP21, probe progesterone
T2 sequence (P08686 whole entry): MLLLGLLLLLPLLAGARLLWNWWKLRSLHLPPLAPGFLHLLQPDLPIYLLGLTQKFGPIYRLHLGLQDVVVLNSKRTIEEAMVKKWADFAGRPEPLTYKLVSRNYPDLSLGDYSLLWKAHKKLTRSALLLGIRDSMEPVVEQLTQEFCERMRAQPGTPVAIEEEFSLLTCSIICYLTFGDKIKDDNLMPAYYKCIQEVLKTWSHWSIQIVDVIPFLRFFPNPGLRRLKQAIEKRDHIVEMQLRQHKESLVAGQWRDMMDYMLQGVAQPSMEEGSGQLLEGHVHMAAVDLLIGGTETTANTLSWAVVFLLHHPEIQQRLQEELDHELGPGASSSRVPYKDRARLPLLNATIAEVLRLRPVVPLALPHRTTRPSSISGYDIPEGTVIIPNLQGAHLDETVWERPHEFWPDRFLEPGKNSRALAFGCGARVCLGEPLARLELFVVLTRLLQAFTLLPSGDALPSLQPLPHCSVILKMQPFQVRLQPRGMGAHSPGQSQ

[3] = Half life in human liver microsomes at 1 uM by LC-MS/MS analysis

SMILES | IC50 [1] [nM] | inhibition at 20 h [2] [%] | half-life at 1 µM [3] [min]
C[C@]12CC[C@H](O)CC1=CC[C@@H]1[C@@H]2CC[C@]2(C)C(c3cncc(F)c3)=CC[C@@H]12 | ≤ 11 | ≥ 50 | ≥ 50
C[C@]12CC[C@H]3[C@@H](CCC4=CC(=O)NCC[C@@]43C)C1=CC=C2c1cncc(C(F)F)c1 | ≤ 11 | ≥ 50 | –
CC1(C)C2=CC[C@H]3C4=CC=C(c5cccnc5)[C@@]4(C)CC[C@@H]3[C@@]2(C)CCC1O (some centres not stated) | – | 10 to 50 | 1 to 50
CC(=O)N[C@@H]1CC[C@@]2(C)C(CC[C@H]3C4=CC=C(c5cccnc5)[C@@]4(C)CC[C@@H]32)C1 (some centres not stated) | – | ≥ 50 | 1 to 50
CC[C@]1(O)CC[C@@]2(C)C(CC[C@@H]3[C@@H]2CC[C@]2(C)C(c4cccnc4)=CC[C@@H]32)C1 (some centres not stated) | – | 10 to 50 | 1 to 50
C[C@]12CC[C@H]3[C@@H](CC=C4C[C@H](O)CC[C@@]43C)C1=CC=C2c1cccnc1 | ≤ 11 | ≥ 50 | 1 to 50
C[C@@]1(O)CC[C@@]2(C)C(=CC[C@@H]3[C@@H]2CC[C@]2(C)C(c4cncc(F)c4)=CC[C@@H]32)C1 | – | ≥ 50 | ≥ 50
CC(=O)NC1CC[C@@]2(C)C(CC[C@@H]3[C@@H]2CC[C@]2(C)C(c4cccnc4)=CC[C@@H]32)C1 (single isomer, unassigned) | ≤ 11 | ≥ 50 | 1 to 50
C[C@]12CCNC(=O)C=C1C(F)C[C@@H]1[C@@H]2CC[C@]2(C)C(c3cccnc3)=CC[C@@H]12 (some centres not stated) | ≤ 11 | ≥ 50 | 1 to 50
C[C@]12CCC(=O)CC1C(=O)C[C@@H]1[C@@H]2CC[C@]2(C)C(c3cncc(F)c3)=CC[C@@H]12 (some centres not stated) | ≤ 11 | ≥ 50 | –
Cc1cncc(C2=CC[C@H]3[C@@H]4CC=C5C[C@H](NC(=O)C6CC6)CC[C@]5(C)[C@H]4CC[C@]23C)c1 | ≤ 11 | ≥ 50 | –
C[C@]12CC[C@@H](NC(=O)C3CC3)CC1CC[C@H]1C3CC=C(c4cccnc4)[C@@]3(C)CC[C@@H]12 (single isomer, unassigned) | ≤ 11 | ≥ 50 | 1 to 50
CC(=O)O[C@H]1CC[C@@]2(C)C(=CC[C@H]3C4=CC=C(n5ccnc5)[C@@]4(C)CC[C@@H]32)C1 | ≤ 11 | – | –
COc1cncc(C2=CC[C@H]3[C@@H]4CCC5C[C@@H](NC(C)=O)CC[C@]5(C)[C@H]4CC[C@]23C)c1 (some centres not stated) | – | ≥ 50 | 1 to 50
C[C@]12CC[C@H]3[C@@H](CC(F)C4(O)CC(=O)CC[C@]34C)[C@@H]1CC=C2c1cccnc1 (some centres not stated) | ≤ 11 | ≥ 50 | –
CC(=O)N[C@@H]1CC[C@@]2(C)C(=CC[C@@H]3[C@@H]2CC[C@]2(C)C(c4cncc(C(F)F)c4)=CC[C@@H]32)C1 | ≤ 11 | ≥ 50 | 1 to 50
CC(=O)N[C@@H]1CC[C@@]2(C)C(=CC[C@@H]3[C@@H]2CC[C@]2(C)C(c4cncc(C(F)(F)F)c4)=CC[C@@H]32)C1 | – | 10 to 50 | 1 to 50
C[C@]12CC[C@H](O)CC1=CC[C@@H]1[C@@H]2CC[C@]2(C)C(c3cccnc3F)=CC[C@@H]12 | ≤ 11 | ≥ 50 | 1 to 50
C[C@]12CC[C@H]3[C@@H](CC(F)C4(O)CC(=O)CC[C@]34C)[C@@H]1CC=C2c1cncc(F)c1 (some centres not stated) | ≤ 11 | ≥ 50 | –
CCNC(=O)N[C@@H]1CC[C@@]2(C)C(=CC[C@@H]3[C@@H]2CC[C@]2(C)C(c4cccnc4)=CC[C@@H]32)C1 | – | ≥ 50 | 1 to 50
C[C@]12CCC(F)(F)CC1CC[C@@H]1[C@@H]2CC[C@]2(C)C(c3cccnc3)=CC[C@@H]12 (some centres not stated) | ≤ 11 | – | –
C[C@]1(O)CC[C@@]2(C)C(CC[C@H]3C4=CC=C(c5cccnc5)[C@@]4(C)CC[C@@H]32)C1 (some centres not stated) | ≤ 11 | 10 to 50 | 1 to 50

SMILES | IC50 [1] [nM] | inhibition at 20 h [2] [%] | half-life at 1 µM [3] [min]
CC1C[C@H]2[C@@H]3CC=C(c4cccnc4)[C@@]3(C)CC[C@@H]2[C@@]2(C)CC[C@H](O)CC12O (some centres not stated) | ≤ 11 | ≥ 50 | –
C[C@]12CC[C@H]3[C@@H](CC(F)[C@@]4(O)C[C@@H](O)CC[C@]34C)[C@@H]1CC=C2c1cccnc1 (some centres not stated) | ≤ 11 | ≥ 50 | 1 to 50
C[C@]12CC[C@H]3[C@@H](CCC4CC(F)(F)CC[C@@]43C)C1=CC=C2c1cccnc1 (some centres not stated) | ≤ 11 | – | –
C[C@]12CCC(=O)C(O)=C1C=C[C@@H]1[C@@H]2CC[C@]2(C)C(c3cccnc3)=CC[C@@H]12 | – | ≥ 50 | 1 to 50
C[C@]1(O)CC[C@@]2(C)C(CC[C@@H]3[C@@H]2CC[C@]2(C)C(c4cccnc4)=CC[C@@H]32)C1 (some centres not stated) | ≤ 11 | ≥ 50 | 1 to 50
C[C@]12CCC(=O)C=C1C(=O)C[C@@H]1[C@@H]2CC[C@]2(C)C(c3cncc(F)c3)=CC[C@@H]12 | ≤ 11 | ≥ 50 | –
C[C@]12CC[C@H]3[C@@H](CCC4=CC(=O)CC[C@@]43C)C1=CC=C2c1cncc(N)c1 | ≤ 11 | – | –
C[C@]12CC[C@@H](NC(=O)C3CC3)CC1=CC[C@H]1C3CC=C(c4cccnc4)[C@@]3(C)CC[C@@H]12 (single isomer, unassigned) | ≤ 11 | ≥ 50 | 1 to 50
C[C@]12CC[C@@H](NC(=O)C3CCC3)CC1=CC[C@@H]1[C@@H]2CC[C@]2(C)C(c3cccnc3)=CC[C@@H]12 | ≤ 11 | ≥ 50 | –
Cc1cncc(C2=CC=C3[C@@H]4CCC5CC(=O)NCC[C@]5(C)[C@H]4CC[C@]23C)c1 (some centres not stated) | ≤ 11 | ≥ 50 | –
COc1cncc(C2=CC[C@H]3[C@@H]4CC=C5C[C@H](NC(=O)C6CC6)CC[C@]5(C)[C@H]4CC[C@]23C)c1 | ≤ 11 | ≥ 50 | 1 to 50
C[C@]12CC[C@H](O)CC1=CC[C@@H]1[C@@H]2CC[C@]2(C)C(c3cncc(N)c3)=CC[C@@H]12 | ≤ 11 | ≥ 50 | ≥ 50
CC(=O)N[C@@H]1CC[C@@]2(C)C(=CC[C@@H]3[C@@H]2CC[C@]2(C)C(c4cncc(F)c4)=CC[C@@H]32)C1 | ≤ 11 | ≥ 50 | 1 to 50
COC(=O)N[C@H]1CC[C@@]2(C)C(CC[C@H]3C4CC=C(c5cccnc5)[C@@]4(C)CC[C@@H]32)C1 (single isomer, unassigned) | – | ≥ 50 | 1 to 50
C[C@]12CC[C@H](O)CC1=CC[C@@H]1[C@@H]2CC[C@]2(C)C(c3ccc(F)nc3)=CC[C@@H]12 | – | 10 to 50 | 1 to 50
C[C@]12CC[C@H]3[C@@H](CC(O)C45CC4CC[C@]35C)C1=CC=C2c1cccnc1 (some centres not stated) | ≤ 11 | ≥ 50 | 1 to 50
CCCC(=O)N[C@@H]1CC[C@@]2(C)C(=CC[C@@H]3[C@@H]2CC[C@]2(C)C(c4cccnc4)=CC[C@@H]32)C1 | ≤ 11 | ≥ 50 | 1 to 50
CC1=C2CC[C@@H]3[C@H](CC[C@]4(C)C(c5cccnc5)=CC[C@@H]34)[C@@]2(C)CCC1O (some centres not stated) | ≤ 11 | 10 to 50 | –
C[C@]12CCC(=O)C=C1C(F)C[C@@H]1[C@@H]2CC[C@]2(C)C(c3cncc(F)c3)=CC[C@@H]12 (some centres not stated) | ≤ 11 | ≥ 50 | 1 to 50
C[C@]12CC[C@@H](NC(=O)C3CCC3)CC1=CC[C@@H]1[C@@H]2CC[C@]2(C)C(n3ccnc3)=CC[C@@H]12 | ≤ 11 | ≥ 50 | 1 to 50
C[C@]12CC[C@H](O)CC1=CC[C@@H]1[C@@H]2CC[C@]2(C)C(c3cncc(Cl)c3)=CC[C@@H]12 | ≤ 11 | ≥ 50 | 1 to 50
CC1=C2CC[C@H]3C4=CC=C(c5cccnc5)[C@@]4(C)CC[C@@H]3[C@@]2(C)CCC1O (some centres not stated) | ≤ 11 | – | –
